Measurements: patent publication US20050031661A1, “Attractants for moths” (priority 2003, published 2005)

How the values were obtained:
corn earworm moths [1] = experiment: Single component floral lures, 2000 field season (Example 3); format: in vivo, Helicoverpa zea; settings: Universal Moth Traps baited with individual floral chemicals from polypropylene vials
Source text: (§1) Materials and Methods. The Universal Moth Trap (Great Lakes IPM, Vestaburg, Mich.) was used in all tests, with a 6 cm^2 piece of Vaportape® (Hercon Environmental Inc., Emigsville, Pa.) in each trap bucket to kill captured moths. The trap is an opaque white bucket with a yellow cone and green lid. Traps were hung from stakes in the weedy borders around irrigated fields in the vicinity of sweet corn and alfalfa, near Mattawa, Grant County, Wash. Traps were placed 12 meters apart in a north to south orientation, because of prevailing westerly winds.
(§2) A randomized complete block design was used, and treatments (trap lures) were randomized each time that traps were checked. Traps were checked twice per week, and insects were placed in pre-labeled plastic bags for transport to the laboratory where they were stored in a freezer until processed. Moths were sorted by sex and identified to species with the aid of a dissecting microscope.
(§3) Unless reported otherwise, polypropylene vials (8 ml) were used as dispensers for release of chemicals tested following the methods of Landolt et al., 2001, supra. Chemicals (5 ml) were pipetted onto cotton in the bottom of the vial. Holes made in the lids (3 mm diameter) permitted the escape of volatilized chemicals from the vials. Vials were suspended with wire near the bottom of the inside of the bucket of the trap. When more than one chemical was used to bait a trap, a separate vial was used for each chemical. Dispensers were replaced every 2 weeks when experiments lasted longer than two weeks.
During the 2000 field season, seven floral compounds were evaluated for attractiveness to corn earworm moths, testing them as lures in traps. These compounds were phenylacetaldehyde, benzyl alcohol, benzyl aldehyde, benzyl acetate, cis jasmone, linalool and phenethyl alcohol. A randomized complete block design was used, with 5 replicate blocks set up. Each block included an unbaited trap as a control.
(§4) Trap catch data were subjected to an ANOVA and treatment means were separated using Tukey's test, following a significant F value in the ANOVA.

corn earworm moths [2] = experiment: Double component Test 7, linalool, benzyl aldehyde, phenethyl alcohol combinations; format: in vivo, Helicoverpa zea; settings: single and double component combinations dispensed from vials
Source text: as §1, §2, §3
Seven double component tests were conducted. For each two-component combinations, two vials were placed in the bucket of the trap; one vial containing phenylacetaldehyde and the other vial containing the second chemical (excepting the use of septa as dispensers for the third double component test that involved terpenes. Five replicate blocks, each including one of each of the different two-chemical combinations as well as phenylacetaldehyde alone, were set up and were maintained for two weeks.
Test 7. The combinations of linalool plus benzyl aldehyde, phenethyl alcohol plus benzaldehyde, and phenethyl alcohol plus linalool were compared to phenylacetaldehyde alone, linalool alone, benzyl aldehyde alone and phenethyl alcohol alone.
as §4

alfalfa looper moth = settings: Landolt et al., 2001; cited from earlier work
alfalfa looper moths [3] = experiment: Double component blends, benzyl acetate plus, trap captures; format: in vivo, Autographa californica; settings: Universal moth traps; benzyl acetate (BA) alone, PAA alone, or BA plus second chemical in separate vials
Source text: (§5) Materials and Methods. A multi-colored version of the Universal Moth Trap, or UniTrap® (AgriSense, sold by Great Lakes IPM, Vestaburg, Mich.), was used in all experiments. The trap is an opaque white bucket beneath a yellow cone and a green lid. A 2.5×2.5 cm piece of Vaportape® (Hercon Environmental, Emigsville, Pa.) was placed in each trap bucket as a killing agent. Traps were hung from stakes at a height of about one meter in uncultivated areas adjacent to fields of alfalfa or directly within alfalfa fields. Traps were placed 12 meters apart in a north to south orientation, because of prevailing westerly winds.
(§6) For all experiments, a randomized complete block design was used, and treatments were randomized each time traps were checked. Traps were checked twice per week, at which time all insects in the traps were placed in pre-labeled plastic bags for transport to the laboratory. Moths were identified and sorted by sex under a dissecting microscope.
Polypropylene vials (8 ml) were used as dispensers for release of chemicals tested, following the methods used in Landolt et al., 2001, supra. Chemicals (5 ml) were pipetted onto cotton in the bottom of the vial. Holes made in vial lids (3 mm diameter) permitted the escape of volatilized chemicals. Vials were suspended with wire near the bottom of the inside of the bucket of the UniTrap®. […]

corn earworm moths [4] = experiment: Double component Test 6, combinations with benzyl alcohol; format: in vivo, Helicoverpa zea; settings: single and double component combinations dispensed from vials
Source text: as §1, §2
Unless reported otherwise, polypropylene vials (8 ml) were used as dispensers for release of chemicals tested following the methods of Landolt et al., 2001, supra. Chemicals (5 ml) were pipetted onto cotton in the bottom of the vial. Holes made in the lids (3 mm diameter) permitted the escape of volatilized chemicals from the vials. Vials were suspended with wire near the bottom of the inside of the bucket of the trap. […]

cabbage looper moths = experiment: Single component floral lures, Universal moth trap captures (Example 2); format: in vivo, Trichoplusia ni; settings: Universal moth traps baited with individual floral chemicals dispensed from polypropylene vials (5 ml, 3 mm hole)
Source text: as §5, §6
(§7) β-Pinene, (R)-(+)-α-pinene, (S)-(−)-limonene, β-myrcene, phenylacetaldehyde, methyl salicylate, and methyl-2-methoxybenzoate were purchased from Aldrich Chemical Co. (Milwaukee, Wis.). (R)-(+)-limonene was purchased from Acros Chemical Co. (Milwaukee, Wis.).
(§8) Polypropylene vials (8 ml) were used as dispensers for release of chemicals tested, following the methods used in Landolt et al., 2001, supra. Chemicals (5 ml) were pipetted onto cotton in the bottom of the vial. Holes made in vial lids (3 mm diameter) permitted the escape of volatilized chemicals. Vials were suspended with wire near the bottom of the inside of the bucket of the UniTrap®. When more than one chemical was used to bait a trap, a separate vial was used for each chemical. Dispensers were replaced after two weeks when experiments lasted longer than two weeks.
(§9) A comparison was made of moth captures in traps baited with seven different chemicals that are emitted by flowers. These chemicals were phenylacetaldehyde, (included as a positive control and standard for comparison), methyl salicylate, racemic limonene, methyl-2-methoxybenzoate, (R)-(+)-α-pinene, (S)-(−)-β-pinene, and β-myrcene. Five replicate blocks, each including these seven chemical treatments and an unbaited trap, were set up on 18 May 2001 and were maintained until 1 Jun. 2001. The study was conducted at an experimental farm about 20 km east of the town of Moxee, in Yakima County, Wash. The same study was conducted again 3-27 July 2001 near Mattawa, Grant County, Wash., in order to take advantage of cabbage looper populations that became apparent in mid summer.
as §4

corn earworm moths [5] = experiment: Single component floral lures, 2001 field season (Example 3); format: in vivo, Helicoverpa zea; settings: Universal Moth Traps baited with individual floral chemicals from polypropylene vials
Source text: as §1, §2
β-Pinene, R-(+)-alpha-pinene, (S)-(−)-limonene, β-myrcene, phenylacetaldehyde, methyl salicylate, and methyl-2-methoxybenzoate were purchased from Aldrich Chemical Inc. (Milwaukee, Wis.). (R)-(+)-limonene was purchased from Acros Chemical Co. (Milwaukee, Wis.).
as §3
A second comparison of floral compounds was made in the 2001 field season, for attractiveness to corn earworm moths. These chemicals were phenylacetaldehyde, methyl salicylate, racemic limonene, methyl-2-methoxybenzoate, […], (S)-beta pinene, and β-myrcene. Five replicate blocks, each including these seven chemical treatments and an unbaited trap as a control, were set up on 3 Jul. 2001 and were maintained until 27 Jul. 2001.
as §4

alfalfa looper moths [6] = experiment: Single component floral lures, Universal moth trap captures (Example 2); format: in vivo, Autographa californica; settings: Universal moth traps baited with individual floral chemicals dispensed from polypropylene vials (5 ml, 3 mm hole)
Source text: as §5, §6, §7, §8, §9, §4

corn earworm moths [7] = settings: Cantelo and Jacobson, 1979b; cited from earlier work

## O=Cc1ccccc1 [Benzyl aldehyde, benzyl aldehyde]
Corn earworm moths [1]
  Mean (±SE) numbers of corn earworm moths captured: 0.05 ± 0.05a
Corn earworm moths [2]
  Mean (±SE) numbers of corn earworm moths captured: 0.05 ± 0.05a
Alfalfa looper moth
  Attraction of alfalfa looper moths (capture in baited traps): not attracted

## OCCc1ccccc1 [Phenethyl alcohol, phenethyl alcohol]
Corn earworm moths [1]
  Mean (±SE) numbers of corn earworm moths captured: 0.00 ± 0.00
Corn earworm moths [2]
  Mean (±SE) numbers of corn earworm moths captured: 0.05 ± 0.05a
Alfalfa looper moth
  Attraction of alfalfa looper moths (capture in baited traps): not attracted

## CC(=O)OCc1ccccc1 [benzyl acetate]
Corn earworm moths [1]
  Mean (±SE) numbers of corn earworm moths captured: 0.00 ± 0.00
Alfalfa looper moths [3]
  Mean (±SE) numbers of alfalfa looper moths captured: 0.37 ± 0.12c
Alfalfa looper moth
  Attraction of alfalfa looper moths (capture in baited traps): attracted

## OCc1ccccc1 [benzyl alcohol]
Corn earworm moths [1]
  Mean (±SE) numbers of corn earworm moths captured: 0.15 ± 0.08a
Corn earworm moths [4]
  Mean (±SE) numbers of corn earworm moths captured: 0.10 ± 0.07a
Alfalfa looper moth
  Attraction of alfalfa looper moths (capture in baited traps): not attracted

## CC/C=C\CC1=C(C)CCC1=O [cis-jasmone]
Corn earworm moths [1]
  Mean (±SE) numbers of corn earworm moths captured: 0.00 ± 0.00
Alfalfa looper moth
  Attraction of alfalfa looper moths (capture in baited traps): not attracted

## C=C(C)[C@H]1CC=C(C)CC1 [limonene]
Cabbage looper moths
  Mean (±SE) numbers of cabbage looper moths captured: 0.0 ± 0.0a
Corn earworm moths [5]
  Mean (±SE) numbers of corn earworm moths captured: 0.05 ± 0.05a
Alfalfa looper moths [6]
  Mean (±SE) numbers of alfalfa looper moths captured: 0.0 ± 0.0a

## C=CC(C)(O)CCC=C(C)C (centres unmarked) [linalool]
Corn earworm moths [1]
  Mean (±SE) numbers of corn earworm moths captured: 0.00 ± 0.00
Corn earworm moths [2]
  Mean (±SE) numbers of corn earworm moths captured: 0.00 ± 0.00a
Alfalfa looper moth
  Attraction of alfalfa looper moths (capture in baited traps): not attracted

## COC(=O)c1ccccc1O [methyl salicylate]
Cabbage looper moths
  Mean (±SE) numbers of cabbage looper moths captured: 0.1 ± 0.1a
Corn earworm moths [5]
  Mean (±SE) numbers of corn earworm moths captured: 0.10 ± 0.05a
Alfalfa looper moths [6]
  Mean (±SE) numbers of alfalfa looper moths captured: 0.1 ± 0.0a

## COC(=O)c1ccccc1OC [methyl-2-methoxybenzoate]
Cabbage looper moths
  Mean (±SE) numbers of cabbage looper moths captured: 0.6 ± 0.2b
Corn earworm moths [5]
  Mean (±SE) numbers of corn earworm moths captured: 3.90 ± 1.69b
Alfalfa looper moths [6]
  Mean (±SE) numbers of alfalfa looper moths captured: 0.1 ± 0.0a

## O=CCc1ccccc1 [phenylacetaldehyde]
Cabbage looper moths
  Mean (±SE) numbers of cabbage looper moths captured: 7.2 ± 1.0c
Corn earworm moths [1]
  Mean (±SE) numbers of corn earworm moths captured: 0.45 ± 0.22b
Corn earworm moths [7]
  Attraction of corn earworm moths: attract
Alfalfa looper moths [3]
  Mean (±SE) numbers of alfalfa looper moths captured: 0.83 ± 0.21e
Corn earworm moths [2]
  Mean (±SE) numbers of corn earworm moths captured: 1.75 ± 0.43c
Corn earworm moths [5]
  Mean (±SE) numbers of corn earworm moths captured: 2.35 ± 0.62b
Alfalfa looper moths [6]
  Mean (±SE) numbers of alfalfa looper moths captured: 4.5 ± 0.5c
Corn earworm moths [4]
  Mean (±SE) numbers of corn earworm moths captured: 2.25 ± 0.35c
Alfalfa looper moth
  Attraction of alfalfa looper moths (capture in baited traps): attracted

## CC1=CC[C@@H]2C[C@H]1C2(C)C [α-pinene, (R)-(+)-α-pinene]
Cabbage looper moths
  Mean (±SE) numbers of cabbage looper moths captured: 0.1 ± 0.0a
Corn earworm moths [5]
  Mean (±SE) numbers of corn earworm moths captured: 0.08 ± 0.04a
Alfalfa looper moths [6]
  Mean (±SE) numbers of alfalfa looper moths captured: 0.0 ± 0.0a

## C=CC(=C)CCC=C(C)C [β-myrcene]
Cabbage looper moths
  Mean (±SE) numbers of cabbage looper moths captured: 0.1 ± 0.1a
Corn earworm moths [5]
  Mean (±SE) numbers of corn earworm moths captured: 0.20 ± 0.10a
Alfalfa looper moths [6]
  Mean (±SE) numbers of alfalfa looper moths captured: 0.4 ± 0.1b

## C=C1CC[C@H]2C[C@@H]1C2(C)C [β-pinene, (S)-(−)-β-pinene]
Cabbage looper moths
  Mean (±SE) numbers of cabbage looper moths captured: 0.0 ± 0.0a
Corn earworm moths [5]
  Mean (±SE) numbers of corn earworm moths captured: 0.03 ± 0.03a
Alfalfa looper moths [6]
  Mean (±SE) numbers of alfalfa looper moths captured: 0.0 ± 0.0a
